Reference: publication PMC6261607, “Novel high–throughput myofibroblast assays identify agonists with therapeutic potential in pulmonary fibrosis that act via EP2 and EP4 receptors” (PLoS ONE, 2018)
Structures can show the parent of a compound that is named as a salt. Where two headings read alike, the source gives them in different places.

What was measured:
[1] = system: normal human lung fibroblasts (NHLF); assay: Phenotypic high-content assay (HCA) of TGF–β1–induced fibroblast–to–myofibroblast differentiation; type: cell-based; conditions: for IC50: read-out: HCA IC50; for inhibition at 10 µM: read-out: Effect HCA at 10 µM [% inhibition]
Method: (§1) The plate was washed 3 times with starvation medium, e.g. fibroblast basal medium (FBM, Lonza) supplemented with 0.1% faf BSA, 100 units / ml of penicillin and 100 μg / ml of streptomycin and 250 ng / ml amphotericin B, and then starved for 24 h in 30 μl volume. NHLF were differentiated into myofibroblasts by incubation with 5 ng / ml TGF–β1 (from a stock of 20 μg / ml in 4 mM HCl, 1 mg / ml BSA) for 48 h. Compounds were prepared as 5x stocks in starvation medium and added to the starved cells to a final 1x concentration concomitant with TGF–β1 addition. The final DMSO concentration in the assay was 0.6% in all wells. 48 h after TGF–β1 addition, the medium was removed and the cells were fixed in methanol for 10 min at room temperature (RT). After fixation, cells were washed 3 times with 1 x PBS and either stored at 4°C for up to 3 days or further processed. […] Images were acquired on the Opera Phenix confocal high–content screening system (Perkin Elmer) using the 20–x water immersion lens.
(§2) DAPI stained nuclei were used to identify cells. α–SMA and FN regions were then identified and mapped to the corresponding nuclei for background correction, cell segmentation and cell feature computation to identify, classify and weigh over 400 features per cell. The computed features (S1 Table) comprise, but are not limited to, granularity, intensity, texture, area, shape and solidity of a cell in both α–SMA–and FN–expressing regions. The 0% compound effect (5 ng / ml TGF–β1) and the 100% compound effect (0 ng / ml TGF–β1) controls, were used to train and validate a support vector machine (SVM), a supervised learning model with associated learning algorithm that, once successfully validated, was applied to every cell in every well of the assayed microtiter plate. The SVM allowed autonomous weighting and classification of the characteristics and thus enabled the classifier to decide which characteristics were most relevant for the differentiation of the cell types. […] The classification of each cell was aggregated to a cell type ratio per well, represented as the computed percentage effect value per well indicative of the degree of myofibroblast differentiation. E.g. 100% equals complete myofibroblast differentiation, 0% indicates a pure fibroblast population without any signs of differentiation.

[2] = system: normal human lung fibroblasts (NHLF); assay: Nuclear count in the HCA, standard assay; type: cell-based; conditions: read-out: Nuclear count IC50
Method: as §1, §2

NHLF cells = assay: RealTime–Glo MT viability assay
Method: The effect of compounds on cell viability was assessed by quantifying the relative metabolic activity of cells using the non–lytic luminescence–based RealTime–Glo™ MT cell viability assay (Promega) according to the manufacturer’s instructions.

[3] = Homo sapiens, Fibroblast, 48 h, NHLF, 5 ng/ml TGF–β1 for 48 h, compound added with TGF–β1, mean ± SD
[4] = Homo sapiens, Fibroblast, 10 µM compound, 5 ng/ml TGF–β1, 48 h
[5] = Homo sapiens, Fibroblast, 48 h, standard HCA, NHLF, 5 ng/ml TGF–β1, 48 h
[6] = 10 µM compound, 5 ng/ml TGF–β1, 48 h
[7] = NHLF, 5 ng/ml TGF–β1 for 48 h, compound added with TGF–β1, mean ± SD
[8] = standard HCA, NHLF, 5 ng/ml TGF–β1, 48 h

Row | SMILES | IC50 [1, 3] | inhibition at 10 µM [1, 4] | IC50 [2, 5] | Effect on viability at 10 µM [% reduction] (NHLF cells; 10 µM compound) | Effect on viability at 10 µM [% reduction] (NHLF cells; human, 10 µM) | further results
1 | Nc1c2ccccc2nc2ccccc12 [Aminacrine] | 6 µM | 97% | 24 µM | 2 % reduction |  | 
2 | COc1ccc(CCN2CCC(Nc3nc4ccccc4n3Cc3ccc(F)cc3)CC2)cc1 [Astemizole] |  | 105% | 8.3 µM |  | 49 % reduction | 
3 | Nc1ncn(C2OC(CO)C(O)C2O)c(=O)n1 (centres unmarked) [Azacytidine–5] |  |  |  |  |  | Effect HCA at 10 µM [% inhibition] [1, 6]: 97 % inhibition; IC50 [1, 7]: 3.2 µM; IC50 [2, 8]: > 25 µM; Effect on viability at 10 µM [% reduction] (NHLF cells): –4 % reduction
4 | Cc1c(-c2ccc(O)cc2)n(Cc2ccc(OCCN3CCCCCC3)cc2)c2ccc(O)cc12.Cl [Bazedoxifene HCl] |  |  |  |  |  | Effect on viability at 10 µM [% reduction] (NHLF cells): 55 % reduction
5 | CC(C)(C)CC(C)(C)c1ccc(OCCOCC[N+](C)(C)Cc2ccccc2)cc1 [Benzethonium chloride] |  |  |  | 72 % reduction |  | 
6 | CC[C@@]1(O)C(=O)OCc2c1cc1n(c2=O)Cc2cc3ccccc3nc2-1 [Camptothecine (S+)] |  |  |  | 5 % reduction |  | Effect HCA at 10 µM [% inhibition] [1, 6]: 105 % inhibition; IC50 [1, 7]: 0.041 µM; IC50 [2, 8]: > 25 µM
7 | CC(C)C[C@H](NC(=O)[C@H](CCc1ccccc1)NC(=O)CN1CCOCC1)C(=O)N[C@@H](Cc1ccccc1)C(=O)N[C@@H](CC(C)C)C(=O)[C@@]1(C)CO1 [Carfilzomib (PR–171), Carfilzomib] | 0.004 µM | 100% |  |  | 52 % reduction | 
8 | [H]/N=C(\N/C(=N/[H])NCCCCCCNC(=N)NC(=N)Nc1ccc(Cl)cc1)Nc1ccc(Cl)cc1 [Chlorhexidine] | 5.8 µM | 80% |  |  | 24 % reduction | 
9 | Oc1c(Cl)cc(Cl)c2cccnc12 [Chloroxine] | 5.9 µM | 80% | > 25 µM |  | 14 % reduction | 
10 | COCCOC(=O)C1=C(C)NC(C)=C(C(=O)OC/C=C/c2ccccc2)C1c1cccc([N+](=O)[O-])c1 (centres unmarked) [Cilnidipine] | 8.04 µM | 92% | > 25 µM | 15 % reduction |  | 
11 | C[C@@H](Oc1cc(-c2cnn(C3CCNCC3)c2)cnc1N)c1c(Cl)ccc(F)c1Cl [Crizotinib (PF–02341066), Crizotinib] | 1.5 µM | 63% | 16 µM | 66 % reduction |  | 
12 | C[C@@H]1C[C@@H]([C@H](O)CC2CC(=O)NC(=O)C2)C(=O)[C@@H](C)C1 [Cycloheximide] |  |  |  | 27 % reduction |  | inhibition at 10 µM ([1]; Homo sapiens, Fibroblast, 48 h): 91%; IC50 ([1]; Homo sapiens, Fibroblast, 48 h): 0.109 µM; IC50 ([2]; Homo sapiens, Fibroblast, 48 h): > 25 µM
13 | CC(C)(C)c1nc(-c2cccc(NS(=O)(=O)c3c(F)cccc3F)c2F)c(-c2ccnc(N)n2)s1 [Dabrafenib (GSK2118436), Dabrafenib] | 2.9 µM | 56% | > 25 µM | 9 % reduction |  | 
14 | Cc1nc(Nc2ncc(C(=O)Nc3c(C)cccc3Cl)s2)cc(N2CCN(CCO)CC2)n1 [Dasatinib (BMS–354825), Dasatinib] | 1.02 µM | 89% | > 25 µM |  | –10 % reduction | 
15 | COc1cccc2c1C(=O)c1c(O)c3c(c(O)c1C2=O)C[C@@](O)(C(C)=O)C[C@@H]3O[C@H]1C[C@H](N)[C@H](O)[C@H](C)O1 [Daunorubicin hydrochloride] |  |  |  |  | 14 % reduction | inhibition at 10 µM ([1]; Homo sapiens, Fibroblast, 48 h): 73%; IC50 ([1]; Homo sapiens, Fibroblast, 48 h): 0.27 µM
16 | Cc1cc(N)c2ccccc2[n+]1CCCCCCCCCC[n+]1c(C)cc(N)c2ccccc21 [Dequalinium dichloride] | 5.8 µM | 67% | > 25 µM |  | 39 % reduction | 

Row | SMILES | IC50 [1, 3] | inhibition at 10 µM [1, 4] | IC50 [2, 5] | Effect on viability at 10 µM [% reduction] (NHLF cells; 10 µM compound) | Effect on viability at 10 µM [% reduction] (NHLF cells; human, 10 µM) | further results
17 | C[C@]12CC[C@H](O)C[C@H]1CC[C@@H]1[C@@H]2CC[C@]2(C)[C@@H](C3=CC(=O)OC3)CC[C@]12O [Digitoxigenin] |  |  |  | 22 % reduction |  | inhibition at 10 µM ([1]; Homo sapiens, Fibroblast, 48 h): 93%; IC50 ([1]; Homo sapiens, Fibroblast, 48 h): 0.039 µM; IC50 ([2]; Homo sapiens, Fibroblast, 48 h): > 25 µM
18 | C[C@H]1O[C@@H](O[C@H]2[C@@H](O)C[C@H](O[C@H]3[C@@H](O)C[C@H](O[C@H]4CC[C@@]5(C)[C@H](CC[C@@H]6[C@@H]5C[C@@H](O)[C@]5(C)[C@@H](C7=CC(=O)OC7)CC[C@]65O)C4)O[C@@H]3C)O[C@@H]2C)C[C@H](O)[C@@H]1O [Digoxin] |  |  |  |  | 19 % reduction | inhibition at 10 µM ([1]; Homo sapiens, Fibroblast, 48 h): 87%; IC50 ([1]; Homo sapiens, Fibroblast, 48 h): 0.01 µM; IC50 ([2]; Homo sapiens, Fibroblast, 48 h): > 25 µM
19 | COc1cccc2c1C(=O)c1c(O)c3c(c(O)c1C2=O)C[C@@](O)(C(=O)CO)C[C@@H]3O[C@H]1C[C@H](N)[C@H](O)[C@H](C)O1 [Doxorubicin hydrochloride] | 0.45 µM | 64% | > 25 µM |  | 20 % reduction | 
20 | CC[C@H]1CN2CCc3cc(OC)c(OC)cc3[C@@H]2C[C@@H]1C[C@H]1NCCc2cc(OC)c(OC)cc21 [Emetine] | 0.071 µM | 100% | > 25 µM | 25 % reduction |  | 
21 | COc1cccc2c1C(=O)c1c(O)c3c(c(O)c1C2=O)C[C@@](O)(C(=O)CO)C[C@@H]3O[C@H]1C[C@H](N)[C@@H](O)[C@H](C)O1 [Epirubicin hydrochloride] | 1.07 µM | 93% |  |  | 28 % reduction | 
22 | CCCCC(=O)O[C@H]1CC[C@H]2[C@@H]3CCc4cc(O)ccc4[C@H]3CC[C@]12C [Estradiol Valerate] | 9.7 µM | 66% | 11 µM |  | 65 % reduction | 
23 | CCOc1ccc2nc3cc(N)ccc3c(N)c2c1 [Ethacridine lactate monohydrate] | 7.5 µM | 73% | > 25 µM | –9 % reduction |  | 
24 | Cc1cc(C#N)cc(C)c1Oc1nc(Nc2ccc(C#N)cc2)nc(N)c1Br [Etravirine (TMC125), Etravirine] | 3.9 µM | 100% | > 25 µM | 29 % reduction |  | 
25 | COC(=O)Nc1nc2ccc(Sc3ccccc3)cc2[nH]1 [Fenbendazole] | 6.7 µM | 76% | 5.8 µM |  | 51 % reduction | 
26 | Cl.Cl.Fc1ccc(C(OCCN2CCN(CCCc3ccccc3)CC2)c2ccc(F)cc2)cc1 [GBR 12909 dihydrochloride] |  |  |  |  |  | Effect HCA at 10 µM [% inhibition] [1, 6]: 56 % inhibition; IC50 [1, 7]: 9.9 µM; Effect on viability at 10 µM [% reduction] (NHLF cells): 13 % reduction
27 | CCCCN(CCCC)CCC(O)c1cc2c(Cl)cc(Cl)cc2c2cc(C(F)(F)F)ccc12 (centres unmarked) [Halofantrine hydrochloride] | 6.02 µM | 101% | 5.2 µM | 29 % reduction |  | 
28 | Oc1c(Cl)cc(Cl)c(Cl)c1Cc1c(O)c(Cl)cc(Cl)c1Cl [Hexachlorophene] |  |  |  |  |  | inhibition at 10 µM ([1]; Homo sapiens, Fibroblast, 48 h): 93%; IC50 ([1]; Homo sapiens, Fibroblast, 48 h): 6.7 µM; IC50 ([2]; Homo sapiens, Fibroblast, 48 h): > 25 µM
29 | CN[C@@H]1C[C@@H](c2ccc(Cl)c(Cl)c2)c2ccccc21 [Indatraline hydrochloride] |  | 67% |  | 20 % reduction |  | IC50 ([1]; Homo sapiens, Fibroblast, NHLF, 5 ng/ml TGF–β1 for 48 h, compound added with TGF–β1, mean ± SD): 8.06 µM
30 | O=C1c2c(O)ccc(O)c2C(=O)c2c(NCCNCCO)ccc(NCCNCCO)c21 [Mitoxantrone dihydrochloride] | 0.62 µM | 101% |  |  | 31 % reduction | 
31 | C=CC(=O)N1CCC[C@@H](n2nc(-c3ccc(Oc4ccccc4)cc3)c3c(N)ncnc32)C1 [PCI–32765 (Ibrutinib), Ibrutinib] |  |  |  |  | 22 % reduction | 
32 | O=C(CCCCCCC(=O)Nc1ccccc1)NO [Vorinostat] |  |  |  | 24 % reduction |  | 
